# Test results taken from US20080103199A1, “TREATMENT OF PERVASIVE DEVELOPMENTAL DISORDERS” (priority 2006, published 2008).
# Tests used:
# submissive rats = test: Reduction of Submissive Behavior Model (RSBM) of depression, dominant-submissive rat food competition test; type: in vivo, Sprague-Dawley rats; settings: 5 weeks, submissive rat treated
# Text: In this study, the effects of COMPOUND #7 on dominant or submissive behavior in pairs of rats competing for food are examined. It has been shown that anti-manic drugs, including anticonvulsants, decrease dominance and antidepressant drugs reduce submissiveness. This model uses dominant behavior as a model of mania and submissive behavior as a model of depression. The dominance and submissiveness is defined in a competition test and measured as the relative success of two food-restricted rats to gain access to a feeder. Rats are randomly paired and placed in an apparatus allowing them to compete for a food reward. The dominant-submissive relationship develops over a 2-week period. The submissive or dominant animals in pairs selected after 2 weeks of training were treated orally […] (b.i.d.) with COMPOUND #7 at 3 or 30 mg/kg for 5 weeks. The partner of the drug-treated animal was treated with vehicle.
# The objective of this study was to determine if COMPOUND #7 is active in the Reduction of Submissive Behavior Model (RSBM) of depression and the Reduction of Dominant Behavior Model (RDBM) of mania. Measurements were made at two doses (3 and 30 mg/kg) after oral twice a day (b.i.d.) administration. The effect of the drug in the RSBM was compared to the effect of fluoxetine (10 mg/kg) and vehicle (0.5% methylcellulose). The effect of the drug in the RDBM was compared with the effect of lithium (100 mg/kg) and vehicle (0.5% methylcellulose). The endpoints measured were the development of a significant reduction of submissive or dominant behavior and its time of onset.
# The DSR developed by two rats competing for food uses the apparatus in FIG. 1.
# In the experiments described in this report Sprague-Dawley rats weighing 160 to 180 g were used. Testing for the development of a DSR between paired rats begins with the random assignment of rats into pairs. […]
# The test involves placing each member of a pair in opposite chambers of the testing apparatus. […] The test is conducted once a day over a 5-minute period and the time spent on the feeder by each animal is recorded. […]
# [1] = test system: Crl:CD-1(ICR)BR albino mice; test: Isolation-induced aggression model in pairs of mice; type: in vivo
# Method: The effects of test compound on the aggressive behavior of Crl:CD-1(ICR)BR albino mice were evaluated using the paradigm of isolation-induced aggression.
# Male Crl:CD-1(ICR)BR albino mice, fasted overnight, were individually housed for 5 weeks in plastic cages on wood-chip bedding. Subsequently, they were paired for 1 minute daily for several days by placing one individually housed mouse (intruder) into the resident cage of another individually housed mouse (resident). The 1-minute pairing of intruder and resident mouse elicits aggressive behavior. Pairs of mice showing consistent aggressive behavior when paired for 1 minute, during several days were selected as subjects for drug testing.
# Test compound (10 to 40 mg/kg p.o.) or the vehicle (methocel; aqueous 0.5%, w/v, hydroxypropyl methylcellulose solution) was administered (10 mL/kg) to the resident and intruder mouse. One and 4 hours after dosing, the mice were paired and the onset of fighting was recorded. […] The duration of fighting during a 1-minute test period was recorded. Mice were re-used in this procedure after several days to a week to allow metabolism and elimination of test compounds. The mice weighed 32 to 49 g at the time of testing and were fasted overnight before dosing. Mice were euthanized with CO2 if they were sick or injured.
# Results were expressed as the median onset of fighting and median duration of fighting in vehicle and drug-treated groups. The statistical significance of an increase in the median onset or a reduction in the median duration of fighting in pairs of mice given test compound or its vehicle 1 and 4 hours after administration was determined using the nonparametric Wilcoxon test (p<0.05, 1-tailed).
smiles,measurement,setting,value
NC(=O)OC[C@@H](O)c1ccccc1Cl [COMPOUND #7],"Effect on submissive rat behavior (competitiveness, time spent at feeder)",submissive rats; 3 mg/kg b.i.d. p.o.,did not have any effect
same,"Effect on submissive rat behavior (competitiveness, time spent at feeder)","submissive rats; 30 mg/kg b.i.d. p.o., vs vehicle-treated",significantly increased competitiveness
same,Onset for initiation of fighting compared to vehicle-treated group,"[1]; 20 mg/kg p.o., 4 hours after administration",statistically significantly shorter
same,Effect on isolation-induced aggressive behavior,"[1]; 40 mg/kg p.o., 1 hour after administration, vs vehicle (p<0.05)",inhibited isolation-induced aggressive behavior
same,Effect on median duration of fighting compared to vehicle-treated groups,"[1]; any dose group (10 to 40 mg/kg p.o.), 4 hours after administration",not affected
